# Legend:
# [1] = tested on: SK-N-BE(2) cells; experiment: Cell viability (Promega CellTiter Glo assay); assay type: cell-based
# Description: (§1) Cells were cultured for 48 hours at the indicated concentration of drug, and then cell viability was measured by Promega CellTiter Glo assay and caspase activity was measured by Promega Caspase3/7 Glo assay. […] Anti-tumor activity is evident at 3 μM of treatment.
# [2] = tested on: retinoic acid receptor (RAR); experiment: Retinoic acid receptor ChIP-seq; assay type: cell-based; conditions: 3 μM Compound B, 48 hours
# From the text: Retinoic acid receptor active binding sites defined in any individual treatment group by ChIP-seq at 48 hrs after treatment were stacked (y-axis) and aligned to the center of the binding peak (x-axis) (FIG. 13). […] Many of the genes found near region 1 binding sites are involved in regulation of retinoid signaling and are transcription factors that drive differentiation (Table 10).
# Regions 1-7 of FIG. 13 are defined relative to DMSO: 1, [Combo] Increased; 2, [ATRA] Increased; 3, [ATRA] [Combo] Increased; 4, [Combo] [ATRA] [Compound B] Increased; 5, [Combo] [ATRA] Decreased; 6, [Compound B] Decreased; and 7, [Compound B] [Combo] [ATRA] Decreased.
# Neuroblastoma cell line SK-N-BE(2) cells were treated with 3 μM Compound B, 1 μM ATRA, or a combination of both at 37° C. over 48 hours and compared to the solvent (DMSO) control. Antibodies to pan-retinoic acid receptor were used to pull down DNA associated with the receptor binding and sequenced. Lists of binding regions were mapped to the chromosome and “associated” with a given gene if the binding region was located within 10,000 bp up- or down-stream of the gene in question. Binding regions were represented as a heatmap where the sites were stacked on the y-axis across treatments, the “0” mark on the x-axis is the center of the binding peak and the intensity of signal indicated by color. The bracketed regions are areas of statistical significance relative to the DMSO control as indicated on the plot.
# Table 12 lists the genes returned when the following conditions are met: 1) combo peak height >4 fold relative to the DMSO control group, and 2) combo expression >4 fold relative to the DMSO control group.
# [3] = tested on: SK-N-BE2 cells; experiment: Levels of proteins related to cell-cycle progression; assay type: cell-based; conditions: 3 days in culture
# Description: The levels of proteins related to cell-cycle progression were assessed following treatment (SK-N-BE2 cells; 3 days in culture) with DMSO (control), Compound B alone, ATRA alone, and Compound B in combination with ATRA. p21 is increased by ATRA and enhanced by Compound B. Cyclin D1 is decreased in the combination setting relative to ATRA as a single agent. CDK2 and CDK4 are decreased in the combination setting with Compound B and ATRA.
# [4] = tested on: SK-N-BE(2) cells; experiment: Microarray gene expression and gene set enrichment analysis; assay type: cell-based, Homo sapiens; conditions: 3 μM Compound B, 1 μM ATRA or combination, microarray 48 hr, fold relative to the DMSO control group
# Description: Gene expression from cells treated with ATRA single agent and combination of ATRA and HDAC1/2i were assessed at 2 hrs and 48 hrs of treatment (FIG. 12A). […] A function analysis of the data using the Ingenuity IPA platform was performed by Qiagen; overlap is observed in the top hits between treatment groups.
# Genes that statistically increase over 2-fold relative to the DMSO control were mapped on a Venn diagram (FIG. 12B).
# Neuroblastoma cell line SK-N-BE(2) cells were treated with 3 μM Compound B, 1 μM ATRA, or a combination of both at 37° C. over 2 hours (FIG. 12A) or 48 hours (FIG. 12B) and compared to the solvent (DMSO) control.
# [5] = tested on: neuroblastoma cells; conditions: MTS assay, FIGS. 27 and 28
# Description: Viable cells were measured in an MTS assay and the combination index (CI) was calculated using the Chou-Talaay method.
# [6] = tested on: neuroblastoma cells; experiment: Cell cycle analysis (Click-iT EdU and FxCycle PI/RNase staining); assay type: cell-based; conditions: 7 days
# Description: Cells were cultured for 7 days with the indicated treatments and then stained with the Invitrogen Click-iT EdU kit and the Invitrogen FxCycle […] kits to assess frequency of cells in each stage of the cell cycle. […] The effect is enhanced by Compound B in a dose dependent manner.
# In combination with ATRA, the effect on p21 is enhanced at concentrations that induce gene expression changes consistent with differentiation. At 7 days of treatment, combination effects are observed on the cell cycle, with a decreasing frequency of s-phase cells and an increasing sub-G1 population (FIG. 6B). […] EDU is increased in cells in s-phase while PI intensity indicates relative levels of DNA. Using these metrics, we illustrate the frequency of cells in the indicated states of the cell cycle.
# [7] = tested on: AKT and c-RAF; experiment: Levels of AKT and c-RAF; assay type: cell-based; conditions: SK-N-BE2 cells; 3 days in culture
# Description: The levels of AKT and c-RAF were assessed following treatment (SK-N-BE2 cells; 3 days in culture) with DMSO (control), Compound B alone, ATRA alone, and Compound B in combination with ATRA. Activated AKT is increased by ATRA and reduced in the combination setting with Compound B. Compound B as a single agent, and in combination with ATRA, decreases cRAF phosphorylation at residue Ser259.
# [8] = tested on: neuroblastoma cells; experiment: Morphology changes / dendrite outgrowth by inverted microscope; assay type: cell-based; conditions: 3, 5 and 7 days
# Description: Cells were cultured for 3, 5, and 7 days with the indicated treatments. Images were captured on an inverted microscope.
# [9] = target: HDAC2 (Homo sapiens, UniProt Q92769); experiment: Biochemical activity of isoform-selective HDAC inhibitors, HDAC2; conditions: biochemical assay
# [10] = tested on: neuroblastoma cells; experiment: Long term growth assay (15, 20, 25 days, Crystal Violet); assay type: cell-based; conditions: 1 μM of exposure, single agent; FIG. 11
# Description: Cells were cultured for 15, 20 or 25 days with the indicated treatments. Cells were imaged on an inverted microscope at days 15 and 20. On day 25, the cells were stained with Crystal Violet dye and imaged by cell phone camera Importantly, the combination of ATRA and Compound B suppressed the growth of ATRA-resistant colonies.
# Cells were cultured for 15, 20 or 25 days with the indicated treatments. Cells were imaged on an inverted microscope at days 15 and 20. On day 25, the cells were stained with Crystal Violet dye and imaged.
# Cells were cultured for 15, 20 or 25 days with the indicated treatments. Cells were imaged on an inverted microscope at days 15 and 20. On day 25, the cells were stained with Crystal Violet dye and imaged. It was observed that the combination activity is mediated by HDAC1/2i.
# Neuroblastoma cells were treated with Compound B or the HDAC3-selective inhibitor Compound C in a long term growth assay.
# [11] = target: HDAC1 (Homo sapiens, UniProt Q13547); experiment: Biochemical activity of isoform-selective HDAC inhibitors, HDAC1; conditions: biochemical assay
# [12] = tested on: SK-N-BE(2) cells; experiment: Caspase activity (Promega Caspase3/7 Glo assay); assay type: cell-based; conditions: 1 μM, 48 hours
# Description: as §1
# [13] = tested on: neuroblastoma cells; experiment: Neuroblastoma proliferation, manual cell counts over 7 days; assay type: cell-based; conditions: 0.75 μM and 2 μM, counted at days 3, 5 and 7
# Description: Cells were cultured over a 7 day period and manually counted at days 3, 5, and 7.
# [14] = tested on: IMR-32 tumors; experiment: IMR-32 neuroblastoma tumor growth in NUDE mice; assay type: in vivo; conditions: IMR-32 tumors in NUDE mice, orally once daily, 5/2 on/off schedule
# Description: IMR-32 tumors were implanted in NUDE mice and Compound E and retinoic acid was administered orally once daily at the indicated doses on a 5/2 on/off schedule.
# [15] = SK-N-BE(2) cells, 1 μM ATRA or combination, fold relative to the DMSO control group
# Chain of HDAC1 (Q13547 whole entry, canonical isoform): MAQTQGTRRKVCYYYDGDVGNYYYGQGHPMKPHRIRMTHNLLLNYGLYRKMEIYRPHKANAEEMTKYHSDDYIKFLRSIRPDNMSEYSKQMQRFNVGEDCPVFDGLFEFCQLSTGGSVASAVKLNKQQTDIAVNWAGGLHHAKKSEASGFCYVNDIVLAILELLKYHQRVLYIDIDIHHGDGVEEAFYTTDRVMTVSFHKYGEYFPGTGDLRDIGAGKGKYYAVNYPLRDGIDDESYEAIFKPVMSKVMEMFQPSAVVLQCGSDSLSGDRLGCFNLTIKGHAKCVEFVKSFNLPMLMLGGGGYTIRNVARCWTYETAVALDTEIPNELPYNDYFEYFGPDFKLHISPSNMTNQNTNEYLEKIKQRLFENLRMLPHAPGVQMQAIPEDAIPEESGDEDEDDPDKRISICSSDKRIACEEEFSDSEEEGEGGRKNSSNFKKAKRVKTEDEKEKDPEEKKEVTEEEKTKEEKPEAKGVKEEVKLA
# Chain of HDAC2 (Q92769 whole entry, canonical isoform): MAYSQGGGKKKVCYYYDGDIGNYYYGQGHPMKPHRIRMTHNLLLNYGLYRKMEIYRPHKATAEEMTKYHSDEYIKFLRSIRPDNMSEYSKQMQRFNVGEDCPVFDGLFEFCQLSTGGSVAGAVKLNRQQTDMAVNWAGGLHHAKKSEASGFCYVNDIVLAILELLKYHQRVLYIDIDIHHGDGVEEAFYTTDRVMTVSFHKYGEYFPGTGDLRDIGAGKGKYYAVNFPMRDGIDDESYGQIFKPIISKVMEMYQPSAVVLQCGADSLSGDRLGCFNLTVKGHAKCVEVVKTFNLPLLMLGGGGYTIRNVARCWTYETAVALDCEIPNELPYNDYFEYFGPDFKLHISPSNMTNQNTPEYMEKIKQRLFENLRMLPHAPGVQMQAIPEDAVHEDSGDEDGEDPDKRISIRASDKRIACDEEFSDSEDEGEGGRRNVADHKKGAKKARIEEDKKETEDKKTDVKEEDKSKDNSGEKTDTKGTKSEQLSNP
smiles,measurement,setting,value
"CC1=C(/C=C/C(C)=C/C=C/C(C)=C/C(=O)O)C(C)(C)CCC1 [ATRA, all-trans-retinoic acid, reference compound]",effect of added ATRA on HDAC1/2i mediated toxicity,"[1]; addition of 1 μM or 3 μM of ATRA to Compound B, FIG. 2A",little effect
same,"RAR Binding (Peak Height), ACSL3",[2]; [15],1.00
same,"RAR Binding (Peak Height), ATP7A",[2]; [15],4.60
same,"RAR Binding (Peak Height), CDKN1A",[2]; [15],4.75
same,"RAR Binding (Peak Height), CRABP2",[2]; [15],3.15
same,"RAR Binding (Peak Height), CTSH",[2]; [15],5.42
same,"RAR Binding (Peak Height), CYP26A1",[2]; [15],7.00
same,"RAR Binding (Peak Height), CYP26B1",[2]; [15],11.50
same,"RAR Binding (Peak Height), DHRS3",[2]; [15],7.50
same,"RAR Binding (Peak Height), DUSP6",[2]; [15],4.00
same,"RAR Binding (Peak Height), ETS1",[2]; [15],3.99
same,"RAR Binding (Peak Height), HSPA5",[2]; [15],2.00
same,"RAR Binding (Peak Height), IER3",[2]; [15],6.83
same,"RAR Binding (Peak Height), NFKBIZ",[2]; [15],4.00
same,"RAR Binding (Peak Height), PCDH18",[2]; [15],3.50
same,"RAR Binding (Peak Height), PTGER2",[2]; [15],2.13
same,"RAR Binding (Peak Height), RARB",[2]; [15],2.20
same,"RAR Binding (Peak Height), RET",[2]; [15],8.86
same,RAR binding to chromatin,"[2]; SK-N-BE(2), 1 μM ATRA, vs DMSO",increased RAR binding
same,p21 level,[3],increased
same,"Gene Expression Change, ACSL3",[4],1.68
same,"Gene Expression Change, ATP7A",[4],4.30
same,"Gene Expression Change, CDKN1A",[4],1.25
same,"Gene Expression Change, CRABP2",[4],12.15
same,"Gene Expression Change, CTSH",[4],2.40
same,"Gene Expression Change, CYP26A1",[4],7.84
same,"Gene Expression Change, CYP26B1",[4],116.67
same,"Gene Expression Change, DHRS3",[4],24.14
same,"Gene Expression Change, DUSP6",[4],8.59
same,"Gene Expression Change, ETS1",[4],3.50
same,"Gene Expression Change, HSPA5",[4],1.48
same,"Gene Expression Change, IER3",[4],3.75
same,"Gene Expression Change, NFKBIZ",[4],2.85
same,"Gene Expression Change, PCDH18",[4],3.98
same,"Gene Expression Change, PTGER2",[4],2.48
same,"Gene Expression Change, RARB",[4],3.91
same,"Gene Expression Change, RET",[4],10.78
same,cytotoxic effect on neuroblastoma cells as a single agent,[5],has a cytotoxic effect
same,"cell cycle stage frequency, single agent",[6],reduces s-phase frequency and increases the sub-G1 population
same,activated AKT,[7],increased
same,morphology / dendrite outgrowth,[8],caused the outgrowth of dendrites over time
"Nc1cc(F)ccc1NC(=O)c1cnc2c(C3CC3)c(N3CCNCC3)ccc2c1 [Compound C, N-(2-amino-4-fluorophenyl)-8-cyclopropyl-7-(piperazin-1-yl)quinoline-3-carboxamide]",IC50,[9],619 nM
same,neuroblastoma cell growth in long term growth assay,[10],required higher concentrations to mediate a similar effect
same,IC50,[11],2000 nM
"O=C(CCCCCCNC(=O)c1cnc(N(c2ccccc2)c2ccccc2Cl)nc1)NO [Compound A, 2-((2-chlorophenyl)(phenyl)amino)-N-(7-(hydroxyamino)-7-oxoheptyl)pyrimidine-5-carboxamide]",cell death,"[1]; 1 μM, 48 hours",Minimal
same,anti-tumor activity,"[1]; 3 μM, 48 hours",evident
same,cytotoxic effect on neuroblastoma cells as a single agent,[5],has a cytotoxic effect
same,caspase 3/7 induction,[12],Minimal
same,"proliferation, single agent",[13],can suppress proliferation similar to ATRA
Nc1ccc(-c2cccs2)cc1NC(=O)c1ccc2nc(N3CCNCC3)ccc2c1 [Compound E],tumor growth,[14],dose-dependent trend toward reduced tumor growth

# Reference: patent publication US20160339022A1, “TREATMENT OF NEUROBLASTOMA WITH HISTONE DEACETYLASE INHIBITORS” (Acetylon Pharmaceuticals Inc., priority 2015, published 2016)
